Consider 68 compounds from the SangsterLogP compilation.

The nature of data set [1]: method code SF, from PMID: 2704. To be noted: pH 1.0.
Data set [2] in a line: method code SF-AS, from DOI: 10.1016/j.bmc.2008.07.057, PMID: 18706818. To be noted: pH 7.4.
A short description of data set [3]: method code SF-GLC, from DOI: 10.1016/0147-6513(82)90020-3, PMID: 7106034.
The nature of data set [4]: method code SF-AS, from DOI: 10.1016/0005-2728(86)90252-5, PMID: 3015209. To be noted: pH 7.2.
Assay in data set [5]: not given
This is another data set of the same source.

A short description of data set [6]: method code SF-AS, from DOI: 10.1021/jm00299a013, PMID: 5458368.
A short description of data set [7]: method code SF-AS, from DOI: 10.1021/jm00162a004, PMID: 3023612.
Assay in data set [8]: not given
The source holds these as a separate data set.

Data set [9] is described as follows: method code SF-RC, from DOI: 10.1182/blood.v76.11.2389.bloodjournal76112389, PMID: 2257308. To be noted: pH 7.4.
Data set [10] in a line: method code SF-AS, from DOI: 10.2307/3577276, PMID: 2913608.
Data set [11] in a line: method code SF-RC, from DOI: 10.1002/ps.2780300102. To be noted: pH 2.0.
Data set [12] in a line: method code SF-RC, from DOI: 10.1016/s0026-895x(25)10639-1, PMID: 1170492.
Data set [13] in a line: method code SF-AS, from DOI: 10.1016/j.bmc.2007.10.035, PMID: 18029186. The note with it: pH 7.4.
For data set [14] the following is noted: pH 1.0.
Data set [15] can be described thus: method code SF-HPLC, from DOI: 10.1002/jps.2600841008, PMID: 8801331.
Data set [16] in a line: method code SF-EPR, from DOI: 10.1016/0003-9861(82)90097-2, PMID: 6284047. The note with it: pH 7.4.
Data set [17] is described as follows: method code SF-HPLC, from DOI: 10.1248/cpb.43.1894.
The nature of data set [18]: method code SF-AS, from Frater-Schröder, M.; Alder, S.; Zbinden, G. (1976). Neurotoxic effects of pyridoxine and analogs in rats. Proc. Eur. Soc. Toxicol, 17, 277-284. The note with it: pH 7.4.
Data set [19] can be described thus: method code SF, from DOI: 10.1002/ps.2780340212. To be noted: pH 7.0.
Assay in data set [20]: not given
This is another data set of the same source.

Data set [21] in a line: method code SF-HPLC, from DOI: 10.1016/0378-5173(88)90220-7. To be noted: pH 7.4.
A short description of data set [22]: method code SF-AS, from DOI: 10.1080/09553007214550551, PMID: 4537457.
A short description of data set [23]: method code SF-RC, from DOI: 10.1248/cpb.38.3099, PMID: 2085895. To be noted: pH 7.4.
Data set [24] can be described thus: method code SF-GLC, from DOI: 10.1016/0045-6535(83)90264-3.
Assay in data set [25]: not given
This is another data set of the same source.

Assay in data set [26]: not given
The source holds these as a separate data set.

The nature of data set [27]: method code SF, from DOI: 10.1002/qsar.19920110207. To be noted: pH 1.0.
The nature of data set [28]: method code SF-AS, from DOI: 10.1002/jhet.5570150704.
Assay in data set [29]: not given
This is another data set of the same source.

The nature of data set [30]: method code SF-AS, from DOI: 10.1135/cccc19822514. The note with it: pH 3.5.
A short description of data set [31]: method code SF-AS, from DOI: 10.1248/cpb.21.2309, PMID: 4775970. To be noted: pH 3.3.
Assay in data set [32]: not given
The source holds these as a separate data set.

Data set [33] in a line: method code SF-HPLC, from Blakemore, C.; Brown, H.; Durant, J.; Emmett, C.; Ganellin, R.; Parsons, E.; Rasmussen, C. (1980). SK&F 92994: a new histamine H2-receptor antagonist. COMMUNICATIONS: Part II. Br. J. Pharmacol., ….

`COc1ccc(C=O)cc1C` showed a logD in data set [1] of 2.23.

Regarding `CCCCC1(C(N)=O)CCC=[N+]1[O-]` (stereo not drawn), the logD in [2] was -0.18.

`CCN(CC)C(=S)SSC(=S)N(CC)CC` displayed a logP in data set [3] of 3.88.

In turn, `CNC(=O)OCc1cccc(I)c1[N+](=O)[O-]` returned a lipophilicity (logP) of 1.64.

`Cc1cccc(C)c1NN=C(C#N)C#N`: the log distribution coefficient (logD) in data set [4] was found to be 2.1.

`O=[N+]([O-])c1nccn1C1OCC(I)CC1O` (stereo not drawn) displayed a lipophilicity (logP) in data set [5] of -0.05.

In turn, `CCCS(=O)(=O)CCn1c([N+](=O)[O-])cnc1C` came in with a lipophilicity (logP) in data set [6] of 0.23.

As for `[O-][N+]1=CCCC12CCCC2`, in data set [7], the log partition coefficient (logP) was -0.1.

Consider `CC(C)NC(=O)c1cccnc1`, for which the log partition coefficient (logP) in [8] came to 0.59.

As to `CCc1c(O)c(=O)ccn1C`, the logD in data set [9] is -0.3.

In data set [10], `O=[N+]([O-])c1ccccc1NS(=O)(=O)c1[nH]cnc1[N+](=O)[O-]` showed a lipophilicity (logP) of 1.2.

As for `NC(=O)Nc1ccc(CC(=O)O)cc1`, the pH-dependent lipophilicity (logD) in data set [11] came out at 0.01.

As for `CC(CSCC(C)=NNC(N)=S)=NNC(N)=S`, the log partition coefficient (logP) in data set [12] was 0.7.

Turning to `CC(=O)OC[C@H]1O[C@H](OCCN(C)C(=O)Cn2ccnc2[N+](=O)[O-])[C@@H](OC(C)=O)[C@@H](OC(C)=O)[C@@H]1OC(C)=O`, in data set [13], the logD is -1.16.

As for `CCCCC1(C)CCC=[N+]1[O-]` (stereo not drawn), the log partition coefficient (logP) in data set [7] amounted to 0.04.

Compound `CC(Oc1cc(Cl)c(Cl)cc1Cl)C(=O)O` (stereo not drawn) returned a logD in data set [14] of 3.8.

Compound `CCOC(=O)C1=C(COCCN)NC(C)=C(C(=O)OC)C1c1ccccc1Cl` (stereo not drawn) came in with a logD in data set [15] (pH 11.0) of 3.09.

Compound `CCC1(C)OCC(C)(C)N1[O]` (stereo not drawn) displayed a pH-dependent lipophilicity (logD) in data set [16] of 1.

In data set [17], `CSC(=S)C1=C(SC)CCC1` showed a logP of 3.59.

The compound `Cc1ncc(CO)c(CO)c1O` yielded a logD in data set [18] of -0.77.

In [19], `CC(C)(C)C(=O)C(Oc1ccc(Cl)cc1)n1cncn1` (stereo not drawn) gave a logD of 2.9.

As to `COC(=O)c1ccccc1NS(=O)(=O)c1[nH]cnc1[N+](=O)[O-]`, the logP in data set [10] was 1.6.

`CNC(=S)NN=C(C)CSCC(C)=NNC(=S)NC` had a log partition coefficient (logP) in data set [12] of 1.4.

Regarding `CCOC(=O)c1cccc(O)c1`, in [20], the logP was 2.47.

For `CNS(=O)(=O)c1ccc(C)cc1`, the logD in data set [21] came to 1.28.

`CN(CCO)C(=O)Cn1ccnc1[N+](=O)[O-]`: the log distribution coefficient (logD) in [13] was -1.25.

As to `CNC(=O)OCc1ccc(I)cc1[N+](=O)[O-]`, the lipophilicity (logP) was determined as 1.67.

For the compound `COc1ccc(C(C)=O)cc1`, the logP in [22] amounted to 1.82.

Take `CNC(=S)N/N=C(C)\C(C)=N/NC(=S)NC`: the logD in data set [23] came out at 0.67.

Compound `CSc1nc2ccccc2s1` had a logP in data set [24] of 3.15.

On to `COc1nc(C)nc(NC(=O)NS(=O)(=O)c2ccccc2Cl)n1`, for which, in data set [11], the logD came out at 1.54.

As for `O=C(O)CCc1cccc(I)c1`, the lipophilicity (logP) in data set [25] was 2.68.

On to `O=C(O)CNC(=O)c1cccc(I)c1`, for which the logP in data set [25] turned out to be 1.44.

Take `CC(CS)C(=O)N1CCC[C@H]1C(=O)O` (stereo partly drawn): in data set [26], the logP was found to be 0.42.

In the case of `CC(=O)c1ccc(C(=O)O)cc1`, the logD in data set [27] was determined as 1.61.

In data set [28], `Cc1nc(-c2ccccn2)no1` yielded a logP of 0.79.

For the compound `O=C(O)C(c1ccc(Cl)cc1)c1ccc(Cl)cc1`, the pH-dependent lipophilicity (logD) in [14] was determined as 4.64.

In [8], `O=C(NCCO)c1cccnc1` came in with a log partition coefficient (logP) of -0.11.

On to `O=[N+]([O-])C1NC=CN1C1OC(CI)C(O)C1O` (stereo not drawn), for which, in data set [5], the lipophilicity (logP) worked out at 0.7.

In [29], `NC(=O)c1ccccc1C(N)=O` returned a log partition coefficient (logP) of 1.08.

`COc1ccc(C(=CSC)C(=S)SC)cc1` displayed a log partition coefficient (logP) in data set [17] of 4.1.

With `O=C(O)CCc1ccccc1`, the logD in data set [30] came to 1.91.

For `Cc1ccc(C)c(C(=O)NS(=O)(=O)c2ccc(N)cc2)c1`, in data set [31], the pH-dependent lipophilicity (logD) amounted to 2.19.

For the compound `N#CC(C#N)=NNc1ccc([N+](=O)[O-])cc1Cl`, in data set [4], the log distribution coefficient (logD) came to 2.

Regarding `Cc1ccc(S(=O)(=O)N(C)C(=O)c2ccccc2)cc1`, in data set [21], the log distribution coefficient (logD) was 2.95.

With `COCCn1ccc(=O)c(O)c1C`, the logD in data set [9] is -0.52.

In turn, `COC(=O)COc1ccccc1` showed a logD in [1] of 1.41.

For the compound `O=S1OCC2C(CO1)C1(Cl)C(Cl)=C(Cl)C2(Cl)C1(Cl)Cl` (stereo not drawn), the lipophilicity (logP) in [3] is 3.83.

In [30], `CC(C(=O)O)c1ccccc1` (stereo not drawn) gave a logD of 1.8.

Turning to `Oc1cccc2ncccc12`, the pH-dependent lipophilicity (logD) in data set [15] (pH 7.4) stood at 2.13.

The compound `NS(=O)(=O)c1cc2c(cc1Cl)NC(C(Cl)Cl)NS2(=O)=O` (stereo not drawn) returned a logP in data set [26] of 0.64.

Regarding `Cc1ncc([N+](=O)[O-])n1CCCS(C)(=O)=O`, the logP in data set [6] was -1.

In turn, `CNC(=O)OCc1cccc(COC(=O)NC)n1` had a logP in [28] of 0.24.

`N#CC(C#N)=NNc1cccc(O)c1` gave a logD in [32] (pH 7.2) of 1.48.

The compound `Cc1nnc(NS(=O)(=O)c2ccc(N)cc2)s1` showed a logD in [31] of 0.26.

As to `CN(Cc1cccc(Br)c1)N=O`, the lipophilicity (logP) in [33] came out at 1.65.

Turning to `CN(Cc1ccc(Br)cc1)N=O`, the log partition coefficient (logP) in [33] turned out to be 1.57.

Regarding `O=C(O)c1c(C(=O)O)c(C(=O)O)c(C(=O)O)c(C(=O)O)c1C(=O)O`, the log partition coefficient (logP) in data set [24] is -1.45.

Compound `CCCC1(C(N)=O)CCC=[N+]1[O-]` (stereo not drawn) registered a pH-dependent lipophilicity (logD) in data set [2] of -0.68.

For the compound `CC1(C)CCCC(C)(C)N1O`, the logD in [16] worked out at 1.81.

Compound `COc1cccc(C(=O)O)c1` came in with a logP in [29] of 1.9.

With `CC(=O)c1ccc(C)cc1`, in data set [22], the logP amounted to 2.28.

The compound `N#CC(C#N)=NNc1ccc(C(=O)CCl)cc1` had a log distribution coefficient (logD) in data set [32] (pH 3.0) of 2.15.

`CCCOC(=O)c1ccccc1Cl`: the logP in data set [20] was 3.45.

For the compound `CNC(=S)NN=C(C)CC(C)=NNC(=S)NC`, the logD in [23] worked out at 2.66.

As for `Cc1ncc(CO)c(C=O)c1O`, the logD in [18] was -0.82.

In data set [27], `CC(=O)c1cccc(C(=O)O)c1` showed a logD of 1.56.

Take `Cc1ccc(NC(N)=O)cc1`: the logD in [19] was 0.8.
